# Legend:
# [1] = molecular target: T1, recombinant human purine nucleoside phosphorylase (rhPNPase) (Homo sapiens, UniProt P00491); assay: biochemical
# T1 construct: gene PNP
# T1 sequence (P00491 1-289): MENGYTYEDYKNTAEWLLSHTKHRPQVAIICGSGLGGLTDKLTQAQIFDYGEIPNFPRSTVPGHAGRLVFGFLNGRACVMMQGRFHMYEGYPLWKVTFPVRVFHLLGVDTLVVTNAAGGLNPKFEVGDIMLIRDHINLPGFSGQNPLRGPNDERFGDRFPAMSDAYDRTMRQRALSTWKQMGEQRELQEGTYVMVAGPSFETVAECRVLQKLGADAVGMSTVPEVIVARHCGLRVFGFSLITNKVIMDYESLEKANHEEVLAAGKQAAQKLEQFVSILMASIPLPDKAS
# [2] = molecular target: T1, recombinant human purine nucleoside phosphorylase (rhPNPase); assay: HPLC-UV enzyme kinetics, guanosine as substrate (Ki […] with inosine), competitive inhibition fit; assay type: biochemical
# [3] = molecular target: T1, recombinant human purine nucleoside phosphorylase (rhPNPase); assay: HPLC-UV enzyme kinetics, competitive inhibition of inosine metabolism; also Michaelis-Menten turnover to 8-aminohypoxanthine; assay type: biochemical
# [4] = molecular target: T1, recombinant human purine nucleoside phosphorylase (rhPNPase); assay: Michaelis-Menten kinetics by HPLC-UV; also inhibits metabolism of 8-aminoinosine; assay type: biochemical
smiles,measurement,setting,value
"Nc1nc2[nH]c(N)nc2c(=O)[nH]1 [8AG, 8-aminoguanine]",Ki,[1],2.8 µM
"Nc1nc2nc[nH]c(=O)c2[nH]1 [8AHX, 8-aminohypoxanthine]",Ki,[2],20 µM
"Nc1nc2c(O)ncnc2n1[C@@H]1O[C@H](CO)[C@@H](O)[C@H]1O [8AI, 8-aminoinosine]",Ki,[3],35 µM
O=c1[nH]cnc2c1ncn2[C@@H]1O[C@H](CO)[C@@H](O)[C@H]1O [inosine],Michaelis-Menten kinetics by HPLC-UV; also inhibits metabolism of 8-aminoinosine,[4],inosine competitively inhibits the metabolism of 8-aminoinosine to 8-aminohypoxanthine
